This passage reports Activity results from ChEMBL document CHEMBL4813936, “Cyclopeptides from the Mushroom Pathogen Fungus Cladobotryum varium” (J Nat Prod, 2021).

The subject of assay [1] is HeLa. The experiment in a line: Induction of autophagy in human HeLa cells expressing GFP-LC3 assessed as increase in punctate structures at 10 nM measured after 24 hrs by fluorescence microscopic analysis. The assay is classed as functional, cell-based.
For assay [2], the system named is Agrobacterium tumefaciens. As to the kind of experiment: Antibacterial activity against Rhizobium radiobacter NBRC14554 assessed as reduction in microbial growth after 20 hrs by liquid microculture method. The assay is classed as functional, organism-based.
The subject of assay [3] is Staphylococcus aureus. As to the kind of experiment: Antibacterial activity against Staphylococcus aureus FDA209P JC-1 assessed as reduction in microbial growth after 20 hrs by liquid microculture method. The assay is classed as functional, organism-based.
Assay [4] concerns P388. As to the kind of experiment: Cytotoxicity against mouse P388 cells measure after 72 hrs by XTT assay. The assay is classed as functional, cell-based. (Tetrazolium dyes change colour on reduction, which living cells bring about.)
In assay [5] the test system is HeLa. As to the kind of experiment: Induction of autophagy in human HeLa cells expressing GFP-LC3 assessed as suppression of autolysosome formation at 10 nM measured after 24 hrs by fluorescence microscopic analysis. It counts as functional, cell-based.
The test system of assay [6] is Trichophyton rubrum. The experiment in a line: Antifungal activity against Trichophyton rubrum NBRC5467 assessed as reduction in microbial growth after 20 hrs by liquid microculture method. The assay is classed as functional, organism-based.
Assay [7] concerns Ralstonia solanacearum. As to the kind of experiment: Antibacterial activity against Ralstonia solanacearum assessed as reduction in microbial growth after 20 hrs by liquid microculture method. It counts as functional, organism-based.
Assay [8] concerns Candida albicans. As to the kind of experiment: Antifungal activity against Candida albicans NBRC0197 assessed as reduction in microbial growth after 20 hrs by liquid microculture method. It counts as functional, organism-based.
Assay [9] relates to Kocuria rhizophila. The experiment in a line: Antibacterial activity against Kocuria rhizophila ATCC9341 assessed as reduction in microbial growth after 20 hrs by liquid microculture method. It counts as functional, organism-based.

Activity calls are given as the source filed them. The calls are words filed in the database; no cut-off is given here. Where a SMILES comes first, the peptide text is derived from it. [ ]: non-standard residue; d: D form. NMeF = CN[C@@H](Cc1ccccc1)C(=O)O; Hica(2S) = CC(C)C[C@H](O)C(=O)O; βAla = NCCC(=O)O

Turning to `CC[C@H](C)[C@@H]1NC(=O)[C@@H]2CCCN2C(=O)[C@H](CC(C)C)OC(=O)CCNC(=O)[C@H](Cc2ccccc2)N(C)C(=O)[C@H](Cc2ccccc2)N(C)C1=O` (cyclo(I[NMeF][NMeF][βAla][Hica(2S)]P)), the outcome in assay [1] and in assay [5] was Active. Also, the result in assay [2], in [3], in assay [4], in [6], in assay [7] and in assay [8] was inactive. The outcome in [9] was inactive.
In the case of `CC[C@H](C)[C@@H]1NC(=O)[C@H](CC(C)C)NC(=O)[C@H](Cc2ccccc2)NC(=O)[C@@H](Cc2ccccc2)NC(=O)[C@@H](Cc2ccccc2)NC1=O`, the outcome in assay [1], in [2], in assay [3], in assay [4], in assay [5] and in [6] was inactive. The result in assay [7], in assay [8] and in assay [9] was inactive.
As to `CC(C)C[C@@H]1OC(=O)CCNC(=O)[C@H](Cc2ccccc2)N(C)C(=O)[C@H](Cc2ccccc2)N(C)C(=O)[C@H](C(C)C)NC(=O)[C@@H]2CCCN2C1=O` (cyclo([Hica(2S)]PV[NMeF][NMeF][βAla])), the result in [1], in [2], in [3], in assay [4], in assay [5] and in assay [6] was inactive. For the same molecule, the result in [7], in assay [8] and in assay [9] was inactive.
